Data on five molecules can be found in US20080161378A1, “Novel Therapeutic Agent For Amyotrophic Lateral Sclerosis (Als) or Diseases Caused by Als” (priority 2004, published 2008).

Data set [1] has as its system patients of ALS. Description: Efficacy evaluation 6 months after administration based on ALSFRS-R (cumulative differences). The format is in vivo, human. To be noted: for Suppression rate (rate of "suppressed") in accordance with ALSFRS-R / Assessment based on cumulative differences in accordance with ALSFRS-R: Suppressed (number of cases): i.v. once daily; for Suppression rate (rate of "suppressed") in accordance with ALSFRS-R: 6 administration periods; for Assessment based on cumulative differences in accordance with ALSFRS-R: Suppressed (number of cases): 6 administration periods with drug holidays, suppressed = ratio between cumulative differences 50% or less; for Assessment based on cumulative differences in accordance with ALSFRS-R: No change (number of cases): no change = ratio 100% or more; for Assessment based on cumulative differences in accordance with ALSFRS-R: Slightly suppressed (number of cases): slightly suppressed = ratio more than 50% and less than 100%. How it is done: 1 ampule of “Radicut injection 30 mg” (containing 30 mg of edaravone, produced and marketed by Mitsubishi Pharma Corporation) was intravenously administered once daily to 5 patients of ALS. Single daily administration of the medicament took 30 minutes, and the administration was carried out for 14 consecutive days (the 1st administration period). […] Thereafter, intravenous administration of the medicament was carried out for 10 days (with no administration on Saturdays, Sundays, and national holidays) in the manner described above (the 2nd administration period). Then, treatments similar to those carried out in the 2nd administration period were repeated 4 times (the 3rd to 6th administration periods).
2 ampules of the aforementioned “Radicut injection 30 mg” were intravenously administered once daily to 14 patients of ALS. Single daily administration of the medicament took 60 minutes, and the administration was carried out for 14 consecutive days (the 1st administration period). […] Thereafter, the intravenous administration of the medicament was carried out for 10 days (with no administration on Saturdays, Sundays, and national holidays) in the manner described above (the 2nd administration period). Then, treatments similar to those carried out in the 2nd administration period were repeated 4 times (the 3rd to 6th administration periods).
In accordance with ALSFRS-R, the score at a time point “before the 1st administration period” (*) was determined to be a base point based on comparison of changes “before administration” and changes “during administration.” Then, patients were evaluated in the following manner.
• Difference at each time point before administration=(* before the 1st administration period)−(time point 1, 2 3, 4, 5 or 6 before administration) • Difference at each time point during administration=(time point i, ii, iii, iv, v, or vi before each administration period)−(* before the 1st administration period)
The sum of differences at time points before administration (defined as A)
A=(*−1)+(*−2)+(*−3)+(*−4)+(*−5)+(*−6)
The sum of differences at time points during administration (defined as B)
B=(i−*)+(ii−*)+(iii−*)+(iv−*)+(v−*)+(vi−*)
Averages of the sums of differences obtained in 2) were calculated so as to obtain cumulative differences. (The sums were divided by 6, based on 6 time points 1 to 6 before administration and 6 time points i to vi during administration).
Cumulative difference before administration=A/6
Cumulative difference during administration=B/6
Based on the averages obtained in 3), the ratio of cumulative difference before administration (A/6) to cumulative difference during administration (B/6) was expressed by the following formula:
(Formula)cumulative difference during administration/cumulative difference before administration×100.
Ratio between cumulative differences(%)=(B/6)/(A/6)×100.
Based on the “ratio between cumulative differences” obtained in 4), efficacy evaluation was made in accordance with the following criteria.

Data set [2] deals with patients of ALS. Put plainly: Efficacy evaluation 6 months after administration based on % FVC (percent predicted forced vital capacity). The format is in vivo, human. The note with it: for average rate of decrease of % FVC: before 1st administration period vs end of 6th administration period. How it is done: The term “% FVC” stands for percent predicted forced vital capacity; it is generally used as an index in a method for objectively evaluating respiratory function in ALS patients (ALS treatment guidelines 2002). In addition, in the case of ALS patients (placebo group), the rate of decrease of % FVC for during 6 months is 13.8% (The BDNF Study Group (Phase III), Neurology, 52, 1427 (1999)).
1 ampule of the aforementioned “Radicut injection 30 mg” was intravenously administered once daily to 4 patients of ALS. Single daily administration of the medicament took 30 minutes, and it was carried out for 14 consecutive days (the 1st administration period). […] Thereafter, intravenous administration of the medicament was carried out for 10 days (with no administration on Saturdays, Sundays, and national holidays) in the manner described above (the 2nd administration period). Then, treatments similar to those carried out in the 2nd administration period were repeated 4 times (the 3rd to the 6th administration periods).
The % FVC for each patient was determined using a chestac-11 (Chest). The average rate of decrease of % FVC was 9.3% when comparing % FVC before the 1st drug administration period and that at the end of the 6th drug administration period.
2 ampules of “Radicut injection 30 mg” (each of which contained 30 mg of edaravone) were intravenously administered once daily to 12 patients of ALS. Single daily administration of the medicament took 60 minutes and it was carried out for 14 consecutive days (the 1st administration period). […] Thereafter, intravenous administration of the medicament was carried out for 10 days (with no administration on Saturdays, Sundays, and national holidays) in the manner described above (the 2nd administration period). […]
The % FVC for each patient was determined using a chestac-11 (Chest), as with the case of the 30 mg group. […] In addition, partial pressure of arterial carbon dioxide (PaCO2) was determined. The PaCO2 of each patient was determined using a blood gas analyzer (Bayer 850; Bayer Medical).

In data set [3] the test system is patients of ALS. Description: Partial pressure of arterial carbon dioxide (PaCO2), blood gas analyzer. Format: in vivo, human. On the procedure:
2 ampules of “Radicut injection 30 mg” (each of which contained 30 mg of edaravone) were intravenously administered once daily to 12 patients of ALS. Single daily administration of the medicament took 60 minutes and it was carried out for 14 consecutive days (the 1st administration period). […] Thereafter, intravenous administration of the medicament was carried out for 10 days (with no administration on Saturdays, Sundays, and national holidays) in the manner described above (the 2nd administration period). Then, treatments similar to those carried out in the 2nd administration period were repeated 4 times (the 3rd to the 6th administration periods).
The % FVC for each patient was determined using a chestac-11 (Chest), as with the case of the 30 mg group. The average rate of decrease of % FVC was 4.5% when comparing % FVC before the 1st drug administration period and that at the end of the 6th drug administration period. In addition, partial pressure of arterial carbon dioxide (PaCO2) was determined. The PaCO2 of each patient was determined using a blood gas analyzer (Bayer 850; Bayer Medical).

In data set [4] the test system is patients of ALS. Put plainly: Safety evaluation 6 months after administration, clinical laboratory test. The format is in vivo, human. To be noted: for BUN / CK / Creatinine / GOT / GPT / γ-GTP: average of patients of Example 2. On the procedure:
The patients of Example 2 were each subjected to a clinical laboratory test.
The following components were determined before and after drug administration using a large automated multichannel analyzer (automatic analyzer 7600-020s; Hitachi).

Another data set deals with ALS. To be noted: Non-Patent Documents 1-5; cited from earlier work.
[5] abbreviates: overall conclusion of Example 2.
The mark [6] stands for this setting: before administration (baseline).

For `CC1=NN(c2ccccc2)C(=O)C1` [Radicut injection 30 mg, 3-methyl-1-phenyl-2-pyrazolin-5-one], in the data set with patients of ALS [1] (30 mg group (5 ALS patients)), the “Suppression rate (rate of "suppressed") in accordance with ALSFRS-R” value stood at 20%, the “Assessment based on cumulative differences in accordance with ALSFRS-R: Suppressed (number of cases)” value came to 1, the “Assessment based on cumulative differences in accordance with ALSFRS-R: No change (number of cases)” value is 1 and the “Assessment based on cumulative differences in accordance with ALSFRS-R: Slightly suppressed (number of cases)” value was determined as 3. In addition, in the data set on patients of ALS [1] (60 mg group (14 ALS patients)), the “Suppression rate (rate of "suppressed") in accordance with ALSFRS-R” value turned out to be 50%, the “Assessment based on cumulative differences in accordance with ALSFRS-R: Suppressed (number of cases)” value was determined as 7, the “Assessment based on cumulative differences in accordance with ALSFRS-R: No change (number of cases)” value stood at 6 and the “Assessment based on cumulative differences in accordance with ALSFRS-R: Slightly suppressed (number of cases)” value was found to be 1. In the data set with patients of ALS [2] (30 mg group (4 ALS patients)), the “average rate of decrease of % FVC” value was 9.3%. Further, the “average rate of decrease of % FVC” value with patients of ALS [2] (60 mg group (12 ALS patients)) is 4.5%. Besides, the “decrease of % FVC in ALS patients” value with patients of ALS [2] (setting [5]) is given as “significantly suppressed”. The “PaCO2 values before the 1st administration period and after the end of the 6th administration period” value with patients of ALS [3] (60 mg group (12 ALS patients)) is given as “almost the same”. Also, the “increase of PaCO2 in ALS patients” value in the data set with patients of ALS [3] (setting [5]) was “significantly suppressed”. Besides, in the data set on patients of ALS [4] (after administration), the BUN was found to be 14.3 mg/dL, the CK is given as 135.6 IU/L, the Creatinine was 0.6 mg/dL and the GOT worked out at 19.1 IU/L. In addition, in the data set with patients of ALS [4] (after administration), the GPT came out at 19.6 IU/L and the γ-GTP stood at 25.3 IU/L. In the data set on patients of ALS [4] (setting [6]), this molecule registered a BUN of 14.1 mg/dL, a CK of 165.3 IU/L, a Creatinine of 0.6 mg/dL and a GOT of 21.3 IU/L. For the same molecule, in the data set on patients of ALS [4] (setting [6]), the GPT was 22.2 IU/L and the γ-GTP worked out at 31.6 IU/L. Besides, the “clinical laboratory values after administration (safety)” value in the data set with patients of ALS [4] (patients of Example 2, 6 months after administration) was “did not increase to abnormal levels”.
In the case of “RhIGF-1: medicament examined as potential medicament for treating ALS”, the “prevention of decreased respiratory function in ALS” value with ALS is “cannot prevent decreased respiratory function”.
Take `CC(=O)N[C@@H](CS)C(=O)O` [N-acetylcysteine]: the “prevention of decreased respiratory function in ALS” value with ALS is “cannot prevent decreased respiratory function”.
`NCC1(CC(=O)O)CCCCC1` [gabapentin]: the “prevention of decreased respiratory function in ALS” value with ALS was “cannot prevent decreased respiratory function”.

B1: BDNF: medicament examined as potential medicament for treating ALS (protein, UniProt P23560 19-247, looked up)
Neurotrophic factor BDNF …: APMKEANIRGQGGLAYPGVRTHGTLESVNGPKAGSRGLTSLADTFEHVIEELLDEDQKVRPNEENNKDADLYTSRVMLSSQVPLEPPLLFLLEEYKNYLDAANMSMRVRRHSDPARRGELSVCDSISEWVTAADKKTAVDMSGGTVTVLEKVPVSKGQLKQYFYETKCNPMGYTKEGCRGIDKRHWNSQCRTTQSYVRALTMDSKKRIGWRFIRIDTSCVCTLTIKRGR
For the molecule B1, in the data set with ALS, the “prevention of decreased respiratory function in ALS” value was “cannot prevent decreased respiratory function”.
